Results as given in PMC8234462, “Novel Cyclophilin Inhibitor Decreases Cell Proliferation and Tumor Growth in Models of Hepatocellular Carcinoma” (Cancers, 2021).
Where two headings read alike, the source gives them in different places.

Columns and labels:
Dendritic cells = assay: Cytotoxicity, CellTiter Glo; type: cell-based; conditions: Homo sapiens, Dendritic cell, 168 h, 7 days of treatment, read-out: IC50 (50% reduction in cell viability)
Procedure: The evaluation of the off-target effects of NV651 was performed by ImQuest BioSciences Inc. (Frederick, MD, USA) by analyzing the cytotoxicity in a panel of primary cells. NV651 was evaluated at a concentration of 30 µM and five serial half-logarithmic dilutions in triplicate. The positive control compounds for each cell type were purchased from Sigma-Aldrich (St. Louis, MO, USA) and were as follows: Unstimulated human peripheral blood mononuclear cells (PBMCs), phytohemagglutinin (PHA)-stimulated PBMCs, monocytes/macrophages, dendritic cells, hepatocytes, induced pluripotent stem cell (iPS) neurons: […] AZT, kidney cells (RPTEC): cisplatin and iPS cardiomyocytes: Doxazosin. The isolation was based on Nair, Archer. Briefly, freshly separated PBMCs from one donor were suspended in DPBS at 4 × 10^6 cells per mL and cultured in a T-75 flask. Cells were incubated for 30 min and then washed 5–7 times with DPBS to remove nonadherent cells. Cells were cultured in RPMI 1640 supplemented with 10% FBS, 2-mM L-glutamine, 25-mM HEPES, […], 100-µg/mL streptomycin, 50-ng/mL rhGM-CSF and 50-ng/mL rhIL-4 and incubated for 7 days. After the incubation period, cells were cultured in the same media with the addition of LPS (10 ng/mL) for two days. […]

RPTECs = assay: Cytotoxicity, CellTiter Glo; type: cell-based, human; conditions: Homo sapiens, RPTEC, 72 h, 3 days of treatment, read-out: IC50 (50% reduction in cell viability)
Procedure: The evaluation of the off-target effects of NV651 was performed by ImQuest BioSciences Inc. (Frederick, MD, USA) by analyzing the cytotoxicity in a panel of primary cells. NV651 was evaluated at a concentration of 30 µM and five serial half-logarithmic dilutions in triplicate. The positive control compounds for each cell type were purchased from Sigma-Aldrich (St. Louis, MO, USA) and were as follows: Unstimulated human peripheral blood mononuclear cells (PBMCs), phytohemagglutinin (PHA)-stimulated PBMCs, monocytes/macrophages, dendritic cells, hepatocytes, induced pluripotent stem cell (iPS) neurons: […] AZT, kidney cells (RPTEC): cisplatin and iPS cardiomyocytes: Doxazosin. Human primary renal proximal tubule cells (hRPTEC, Lonza, Basel, Switzerland) were cultured at 1 × 10^4 cells/well in supplemented REGM medium (Lonza, Basel, Switzerland). Following overnight incubation for adherence, cells were treated with NV651 in triplicate. After a 3-day treatment, CellTiter Glo (Promega, Madison, WI, USA) was used. CellTiter Glo was performed to evaluate cell viability. CellTiter Glo Luminescent Cell Viability Assay (Promega, Madison, WI, USA) was performed according to the manufacturer’s instructions.

[1] = Pharmacokinetics IV and PO; type: in vivo; conditions: male, CD1, mouse, blood, mice; for Tmax: read-out: time of peak concentration in blood (converted)
Procedure: These experiments were performed by Shanghai ChemPartner Co., Ltd. (Shanghai, China) following the guidance described above.
Thirty microliters of blood or liver samples were mixed with 100-µL Pierce Acetonitrile (ACN, Thermo Fisher Scientific, Waltham, MA, USA) containing 20-ng/mL IS (702) used as the internal standard. An aliquot of 10-µL supernatant was injected for LC-MS/MS analysis using LCMSMS-003 (API4000).
NV651 was prepared as described above. Six- to eight-week-old male mice were treated IV with 0.5 mg/kg or PO with 5 mg/kg, with 3 mice per group. Blood and plasma samples were taken pre-dose; at 5 min of treatment and at 1, 2, 4, 8 or 24 h. Analysis was performed as indicated above.

[2] = Body weight during xenograft treatment; type: in vivo, NMRI nude mice; conditions: 10 mg/kg daily subcutaneous; 3 weeks
Procedure: HEPG2 cells were transduced with RediFect Red-FLuc-GFP (Perkin Elmer, Cat# CLS960003, Waltham, MA, USA) with a MOI = 3 and sorted for GFP^+ in a FACSAria III (BD Biosciences, Franklin Lakes, NJ, USA). GFP^+Luciferase (Luc)^+ HEPG2 cells were confirmed to be negative for mycoplasma with the MycoAlert^TM Mycoplasma Detection Kit (Lonza, Cat# LT07-418, Basel, Switzerland). Cell viability and a percentage of the GFP^+ cells were analyzed before the start of the in vivo experiment with a BD FACSverse cytometer (BD Biosciences, Franklin Lakes, NJ, USA). Twenty NMRI nude female mice (6–8 weeks old) were injected in one flank with 1 million cells suspended in PBS with 50% Matrigel (Corning, Cat# 354230, Corning, NY, USA) in a total volume of 200 µL. […]
Tumor growth was assessed with an in vivo imaging system (IVIS) one week after the injection of the cells. […] Body weights were measured at time 0 of the treatment and twice a week after the beginning of the treatment. […] Tumor growth was analyzed for up to 3 weeks. BLI signal intensity was quantified in total flux (photons/s) after deducting the average background signal from the measurement region of interest (ROI) around the tumor area using live image analysis software (PerkinElmer, Waltham, MA, USA).

CC(=O)CCC1C(=O)NC(C(C)C)C(=O)NC(Cc2cc(O)cc(F)c2)C(=O)N2CCCC(N2)C(=O)OC(C(C)=CC=CC(=O)OC(C)(C)C)CC=CC=CC(O)C(C)C1O (stereo not drawn) [NV651]
IC50 (Dendritic cells): 24.2 µM
IC50 (RPTECs): 20.9 µM
bioavailability ([1]; 0.5 mg/kg IV vs 5 mg/kg PO): 2%
Tmax ([1]; 0.5 mg/kg IV): ~5 min
Tmax ([1]; 5 mg/kg PO): ~60 min
body weight [2]: no significant changes
